From ChEMBL document CHEMBL5463722, “Data for DCP probe BI-5524” (2023)
One block for each compound: values may come before it.

Legend:
Cathepsin G = Cathepsin G (Homo sapiens, UniProt P08311); experiment: CTSG inhibition assay
[1] = molecular target: 5-hydroxytryptamine receptor 5A (Homo sapiens) (UniProt P47898); experiment: Activity against 5HT5A/H in the Eurofins SafetyScreen44 (BI) by Radioactive Assay (Old_Cerep_2); conditions: Compound concentration 10.0 uM
[2] = molecular target: 5-hydroxytryptamine receptor 6 (Homo sapiens) (UniProt P50406); experiment: Activity against 5HT6/H in the Eurofins SafetyScreen44 (BI) by Others (Old_Cerep_3); conditions: Compound concentration 10.0 uM
[3] = molecular target: Adenosine receptor A3 (Homo sapiens) (UniProt P0DMS8); experiment: A3 Eurofins-Cerep binding assay; set-up: ligand concentration 0.15 nM
Chain of Adenosine receptor A3 (Homo sapiens) (P0DMS8 whole entry): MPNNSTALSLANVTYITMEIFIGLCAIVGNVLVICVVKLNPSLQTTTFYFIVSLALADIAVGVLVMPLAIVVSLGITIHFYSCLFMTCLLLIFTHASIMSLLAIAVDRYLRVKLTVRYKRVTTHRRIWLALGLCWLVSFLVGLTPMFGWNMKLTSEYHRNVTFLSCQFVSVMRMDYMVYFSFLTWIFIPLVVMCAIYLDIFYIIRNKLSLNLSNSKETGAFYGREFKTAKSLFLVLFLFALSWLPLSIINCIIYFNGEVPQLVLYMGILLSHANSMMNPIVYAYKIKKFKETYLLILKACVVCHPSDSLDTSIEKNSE

[4] = molecular target: Bombesin receptor (Rattus norvegicus) (UniProt P52500+P24053+Q8K418); experiment: Activity against BOMBESIN/NS in the Eurofins SafetyScreen44 (BI) by Radioactive Assay (Old_Cerep_9); format: protein assay
Chain of Bombesin receptor (Rattus norvegicus) (P24053 whole entry, looked up): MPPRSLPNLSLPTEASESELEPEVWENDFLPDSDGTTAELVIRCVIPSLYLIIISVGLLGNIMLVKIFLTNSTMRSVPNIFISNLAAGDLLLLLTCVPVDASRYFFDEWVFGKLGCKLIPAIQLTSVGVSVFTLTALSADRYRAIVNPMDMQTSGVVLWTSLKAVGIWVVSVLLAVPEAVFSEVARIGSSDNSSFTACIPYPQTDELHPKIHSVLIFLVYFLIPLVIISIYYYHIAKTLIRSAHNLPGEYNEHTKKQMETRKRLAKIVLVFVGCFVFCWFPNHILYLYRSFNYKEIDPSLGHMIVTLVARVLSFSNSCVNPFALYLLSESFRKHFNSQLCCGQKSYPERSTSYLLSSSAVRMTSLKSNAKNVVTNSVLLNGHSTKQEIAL
Chain of Bombesin receptor (Rattus norvegicus) (P52500 whole entry, looked up): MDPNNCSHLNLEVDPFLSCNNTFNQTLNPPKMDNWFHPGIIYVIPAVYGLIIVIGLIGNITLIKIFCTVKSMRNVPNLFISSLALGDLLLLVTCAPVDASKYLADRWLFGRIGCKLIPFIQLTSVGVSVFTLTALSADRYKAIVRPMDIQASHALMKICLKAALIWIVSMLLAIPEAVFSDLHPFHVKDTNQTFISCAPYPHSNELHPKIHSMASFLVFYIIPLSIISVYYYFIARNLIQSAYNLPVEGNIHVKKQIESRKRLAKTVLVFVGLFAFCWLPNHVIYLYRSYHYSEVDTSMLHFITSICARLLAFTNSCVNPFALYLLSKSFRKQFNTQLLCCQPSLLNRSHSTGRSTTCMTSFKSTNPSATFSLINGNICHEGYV
Chain of Bombesin receptor (Rattus norvegicus) (Q8K418 whole entry, looked up): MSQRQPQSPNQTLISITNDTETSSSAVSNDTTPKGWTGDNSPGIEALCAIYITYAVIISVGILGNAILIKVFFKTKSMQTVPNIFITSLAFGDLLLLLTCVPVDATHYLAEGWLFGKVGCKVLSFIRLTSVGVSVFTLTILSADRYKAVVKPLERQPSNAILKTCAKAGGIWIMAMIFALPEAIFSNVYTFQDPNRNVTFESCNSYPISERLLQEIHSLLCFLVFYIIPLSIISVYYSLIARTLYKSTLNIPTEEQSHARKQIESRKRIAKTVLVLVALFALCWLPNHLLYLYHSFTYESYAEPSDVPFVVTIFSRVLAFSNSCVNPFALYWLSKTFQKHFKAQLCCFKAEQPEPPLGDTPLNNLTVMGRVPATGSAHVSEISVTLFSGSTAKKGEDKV

[5] = molecular target: Muscarinic acetylcholine receptor M5 (Homo sapiens) (UniProt P08912); experiment: M5 Eurofins-Cerep binding assay; conditions: Compound concentration 10.0 uM
[6] = molecular target: Melatonin receptor type 1A (Homo sapiens) (UniProt P48039); experiment: MT1 (ML1A) Eurofins-Cerep binding assay; set-up: ligand concentration 0.01 nM; conditions: Compound concentration 10.0 uM
[7] = molecular target: Substance-P receptor (Homo sapiens) (UniProt P25103); experiment: NK1 Eurofins-Cerep binding assay; conditions: Compound concentration 10.0 uM
[8] = molecular target: Substance-K receptor (Homo sapiens) (UniProt P21452); experiment: Activity against NK2/H in the Eurofins SafetyScreen44 (BI) by Radioactive Assay (Old_Cerep_25); conditions: Compound concentration 10.0 uM
[9] = molecular target: Neuromedin-K receptor (Homo sapiens) (UniProt P29371); experiment: Agonist activity in the Eurofins SafetyScreen44 (BI) against NK3/H by Radioligand Binding (Old_Cerep_26); conditions: Compound concentration 10.0 uM
Chain of Neuromedin-K receptor (Homo sapiens) (P29371 whole entry): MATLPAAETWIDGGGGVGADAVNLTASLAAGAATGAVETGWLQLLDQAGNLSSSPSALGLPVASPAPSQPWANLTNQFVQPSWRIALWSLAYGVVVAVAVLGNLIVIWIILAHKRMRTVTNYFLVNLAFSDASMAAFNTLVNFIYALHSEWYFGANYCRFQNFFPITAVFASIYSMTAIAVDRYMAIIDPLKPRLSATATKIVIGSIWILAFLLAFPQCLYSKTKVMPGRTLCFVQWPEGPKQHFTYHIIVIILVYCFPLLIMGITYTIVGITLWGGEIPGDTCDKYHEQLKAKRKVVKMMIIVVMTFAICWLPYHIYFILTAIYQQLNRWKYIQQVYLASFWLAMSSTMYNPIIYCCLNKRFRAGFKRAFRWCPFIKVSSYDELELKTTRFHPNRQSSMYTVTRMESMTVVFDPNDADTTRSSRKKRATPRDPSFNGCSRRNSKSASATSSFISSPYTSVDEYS

[10] = molecular target: Nociceptin receptor (Homo sapiens) (UniProt P41146); experiment: Activity against ORL1/H in the Eurofins SafetyScreen44 (BI) by Radioactive Assay (Old_Cerep_28); conditions: Compound concentration 10.0 uM
[11] = molecular target: P2X purinoceptor (Oryctolagus cuniculus) (UniProt G1U3D6); experiment: Activity against P2X/R in the Eurofins SafetyScreen44 (BI) by Others (Old_Cerep_29); conditions: Rattus norvegicus; Compound concentration 10.0 uM
[12] = molecular target: Pituitary adenylate cyclase-activating polypeptide type I receptor (Homo sapiens) (UniProt P41586); experiment: Activity against PACAP/HU in the Eurofins SafetyScreen44 (BI) by Radioactive Assay (Old_Cerep_31); conditions: Compound concentration 10.0 uM
[13] = molecular target: Neuropeptide Y receptor type 2 (Homo sapiens) (UniProt P49146); experiment: Y2 Eurofins-Cerep binding assay; set-up: ligand concentration 0.015 nM; conditions: Compound concentration 10.0 uM
[14] = molecular target: 5-hydroxytryptamine receptor 2C (Homo sapiens) (UniProt P28335); experiment: Activity against 5HT2C/H in the Eurofins SafetyScreen44 (BI) (Cerep_1003); conditions: Compound concentration 10.0 uM
Chain of 5-hydroxytryptamine receptor 2C (Homo sapiens) (P28335 whole entry): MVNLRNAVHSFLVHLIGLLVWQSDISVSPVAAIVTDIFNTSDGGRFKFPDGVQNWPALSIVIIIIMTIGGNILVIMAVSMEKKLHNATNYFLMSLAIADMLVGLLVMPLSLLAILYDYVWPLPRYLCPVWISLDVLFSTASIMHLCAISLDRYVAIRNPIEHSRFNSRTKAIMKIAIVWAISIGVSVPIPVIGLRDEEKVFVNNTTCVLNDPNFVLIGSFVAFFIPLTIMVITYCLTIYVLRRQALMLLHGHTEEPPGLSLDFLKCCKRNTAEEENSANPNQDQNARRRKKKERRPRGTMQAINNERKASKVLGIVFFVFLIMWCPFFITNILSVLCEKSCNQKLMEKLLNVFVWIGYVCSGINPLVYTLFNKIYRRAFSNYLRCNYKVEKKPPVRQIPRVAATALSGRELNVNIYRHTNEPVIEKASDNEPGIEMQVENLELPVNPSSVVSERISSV

[15] = molecular target: GABA-A receptor; anion channel (Rattus norvegicus) (UniProt O09028+P15431+P18506+P18508+P19969+P20236+P23574+P23576+P28471+P28473+P30191+P62813+P63079+P63138+Q91ZM7+Q9ES14); experiment: Activity against BZD/PERIPH/R in the Eurofins SafetyScreen44 (BI) by Radioactive Assay (Old_Cerep_10); format: protein-complex assay
[16] = molecular target: L-type calcium channel (Cav1.2, alpha-1C), CA+/VERSI/R (Rattus norvegicus, UniProt P22002); experiment: Inhibitor of CA+/VERSI/R in the Eurofins SafetyScreen44 (BI) by Radioactive Assay (Old_Cerep_11); set-up: scale not given: the % may be the effect or the level left; conditions: compound concentration 10 uM, read-out: % Ctrl
[17] = molecular target: C-C chemokine receptor type 1 (Homo sapiens) (UniProt P32246); experiment: Activity against CCR1/H in the Eurofins SafetyScreen44 (BI) (Old_Cerep_14); conditions: Compound concentration 10.0 uM
[18] = molecular target: D(1B) dopamine receptor (Homo sapiens) (UniProt P21918); experiment: Activity against D5/H in the Eurofins SafetyScreen44 (BI) by Radioactive Assay (Old_Cerep_17); conditions: Compound concentration 10.0 uM
Chain of D(1B) dopamine receptor (Homo sapiens) (P21918 whole entry): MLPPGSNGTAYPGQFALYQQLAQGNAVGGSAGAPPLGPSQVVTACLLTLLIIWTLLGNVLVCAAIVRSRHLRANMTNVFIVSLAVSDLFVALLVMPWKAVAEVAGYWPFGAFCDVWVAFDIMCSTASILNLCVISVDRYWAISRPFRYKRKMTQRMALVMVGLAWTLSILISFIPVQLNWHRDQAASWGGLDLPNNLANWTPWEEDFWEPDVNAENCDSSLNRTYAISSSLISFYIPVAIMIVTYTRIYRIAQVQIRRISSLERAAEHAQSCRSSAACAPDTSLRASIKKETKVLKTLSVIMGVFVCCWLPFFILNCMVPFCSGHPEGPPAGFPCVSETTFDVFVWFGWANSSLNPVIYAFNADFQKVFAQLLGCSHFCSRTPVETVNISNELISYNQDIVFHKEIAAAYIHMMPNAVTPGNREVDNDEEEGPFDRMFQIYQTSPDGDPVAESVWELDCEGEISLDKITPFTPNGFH

[19] = molecular target: Prostaglandin E2 receptor EP4 subtype (Homo sapiens) (UniProt P35408); experiment: Agonist activity in the Eurofins SafetyScreen44 (BI) against EP4/H AG by Radioactive Assay (Old_Cerep_19); conditions: Compound concentration 10.0 uM
[20] = molecular target: C-X-C chemokine receptor type 2 (Homo sapiens) (UniProt P25025); experiment: CXCR2 (IL-8B) Eurofins-Cerep binding assay; conditions: Compound concentration 10.0 uM
[21] = molecular target: Small conductance calcium-activated potassium channel protein 1 (Rattus norvegicus) (UniProt P70606); experiment: Inhibitor of K+/CA+/R in the Eurofins SafetyScreen44 (BI) by Radioactive Assay (Old_Cerep_23); conditions: Compound concentration 10.0 uM
[22] = molecular target: 5-hydroxytryptamine receptor 1B (Homo sapiens) (UniProt P28222); experiment: 5-HT1B Eurofins-Cerep binding assay; set-up: ligand concentration 1 nM; conditions: Compound concentration 10.0 uM
[23] = molecular target: Prostaglandin G/H synthase 1 (Homo sapiens) (UniProt P23219); experiment: Inhibitor of COX-1 in the Eurofins Cerep SafetyScreen44 (BI) by Fluorimetry (Cerep_4173); conditions: Compound concentration 10.0 uM
[24] = molecular target: Prostaglandin G/H synthase 2 (Homo sapiens) (UniProt P35354); experiment: Inhibitor of COX-2 in the Eurofins Cerep SafetyScreen44 (BI) by Fluorimetry (Cerep_4186); conditions: Compound concentration 10.0 uM
[25] = molecular target: Angiotensin-converting enzyme (Homo sapiens) (UniProt P12821); experiment: Activity against ACE(HU_AMTCH400) in the Eurofins Cerep SafetyScreen44 (BI) by Photometry (Cerep_3441); conditions: Compound concentration 10.0 uM
[26] = molecular target: Alpha-1A adrenergic receptor (Homo sapiens) (UniProt P35348); experiment: Agonist activity in the Eurofins Cerep SafetyScreen44 (BI) against ALPHA1AH_ANTAG by Scintillation counting (Cerep_2338); conditions: Compound concentration 10.0 uM
[27] = molecular target: L-type calcium channel (Cav1.2, alpha-1C), dihydropyridine site (Rattus norvegicus, UniProt P22002); experiment: Inhibitor of CA+/DHPSI/R in the Eurofins Cerep SafetyScreen44 (BI) by Radioactive Assay (Cerep_161); format: protein assay; set-up: scale not given: the % may be the effect or the level left; conditions: rat brain, probe [3H](+)PN200-110, compound concentration 10 uM, read-out: % Ctrl
[28] = molecular target: MAO-A (amine oxidase [flavin-containing] A) (Homo sapiens, UniProt P21397); experiment: Agonist activity in the Eurofins Cerep SafetyScreen44 (BI) against MAO-A_ANTAG by Scintillation counting (Cerep_443); set-up: scale not given: the % may be the effect or the level left; conditions: rat; compound concentration 10 uM; target entry is the homologue from another species; read-out: % Ctrl
Chain of MAO-A (amine oxidase [flavin-containing] A) (P21397 whole entry): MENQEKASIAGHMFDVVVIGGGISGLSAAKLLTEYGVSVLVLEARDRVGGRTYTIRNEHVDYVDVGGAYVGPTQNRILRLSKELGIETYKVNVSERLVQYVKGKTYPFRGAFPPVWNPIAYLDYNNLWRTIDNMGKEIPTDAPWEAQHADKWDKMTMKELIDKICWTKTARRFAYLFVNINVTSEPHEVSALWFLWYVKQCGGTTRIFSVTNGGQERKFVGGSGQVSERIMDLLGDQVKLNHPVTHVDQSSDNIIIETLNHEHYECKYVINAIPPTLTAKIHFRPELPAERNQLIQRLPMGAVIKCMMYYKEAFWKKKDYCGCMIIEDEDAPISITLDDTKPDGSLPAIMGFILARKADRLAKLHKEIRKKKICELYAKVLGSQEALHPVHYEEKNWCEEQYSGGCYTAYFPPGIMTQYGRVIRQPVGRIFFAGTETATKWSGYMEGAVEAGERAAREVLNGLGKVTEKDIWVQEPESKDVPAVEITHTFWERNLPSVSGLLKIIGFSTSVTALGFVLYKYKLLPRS

[29] = molecular target: Glutamate NMDA receptor (Rattus norvegicus) (UniProt P35439+Q00959+Q00960+Q00961+Q62645+Q8VHN2+Q9R1M7); experiment: Inhibitor of NMDA/R in the Eurofins Cerep SafetyScreen44 (BI) by Radioactive Assay (Cerep_66); format: protein-complex assay; conditions: Compound concentration 10.0 uM
Homo sapiens = species: Homo sapiens; experiment: Agonist activity in the Eurofins Cerep SafetyScreen44 (BI) against N_NEURO_A4B2 by Radioligand Binding (Cerep_3029); format: protein-complex assay; conditions: Compound concentration 10.0 uM
[30] = molecular target: cGMP-inhibited 3',5'-cyclic phosphodiesterase 3A (Homo sapiens) (UniProt Q14432); experiment: Inhibitor of PDE3A in the Eurofins Cerep SafetyScreen44 (BI) by HTRF-homogeneous time resolved fluoresce (Cerep_4072); conditions: Compound concentration 10.0 uM
Chain of cGMP-inhibited 3',5'-cyclic phosphodiesterase 3A (Homo sapiens) (Q14432 whole entry): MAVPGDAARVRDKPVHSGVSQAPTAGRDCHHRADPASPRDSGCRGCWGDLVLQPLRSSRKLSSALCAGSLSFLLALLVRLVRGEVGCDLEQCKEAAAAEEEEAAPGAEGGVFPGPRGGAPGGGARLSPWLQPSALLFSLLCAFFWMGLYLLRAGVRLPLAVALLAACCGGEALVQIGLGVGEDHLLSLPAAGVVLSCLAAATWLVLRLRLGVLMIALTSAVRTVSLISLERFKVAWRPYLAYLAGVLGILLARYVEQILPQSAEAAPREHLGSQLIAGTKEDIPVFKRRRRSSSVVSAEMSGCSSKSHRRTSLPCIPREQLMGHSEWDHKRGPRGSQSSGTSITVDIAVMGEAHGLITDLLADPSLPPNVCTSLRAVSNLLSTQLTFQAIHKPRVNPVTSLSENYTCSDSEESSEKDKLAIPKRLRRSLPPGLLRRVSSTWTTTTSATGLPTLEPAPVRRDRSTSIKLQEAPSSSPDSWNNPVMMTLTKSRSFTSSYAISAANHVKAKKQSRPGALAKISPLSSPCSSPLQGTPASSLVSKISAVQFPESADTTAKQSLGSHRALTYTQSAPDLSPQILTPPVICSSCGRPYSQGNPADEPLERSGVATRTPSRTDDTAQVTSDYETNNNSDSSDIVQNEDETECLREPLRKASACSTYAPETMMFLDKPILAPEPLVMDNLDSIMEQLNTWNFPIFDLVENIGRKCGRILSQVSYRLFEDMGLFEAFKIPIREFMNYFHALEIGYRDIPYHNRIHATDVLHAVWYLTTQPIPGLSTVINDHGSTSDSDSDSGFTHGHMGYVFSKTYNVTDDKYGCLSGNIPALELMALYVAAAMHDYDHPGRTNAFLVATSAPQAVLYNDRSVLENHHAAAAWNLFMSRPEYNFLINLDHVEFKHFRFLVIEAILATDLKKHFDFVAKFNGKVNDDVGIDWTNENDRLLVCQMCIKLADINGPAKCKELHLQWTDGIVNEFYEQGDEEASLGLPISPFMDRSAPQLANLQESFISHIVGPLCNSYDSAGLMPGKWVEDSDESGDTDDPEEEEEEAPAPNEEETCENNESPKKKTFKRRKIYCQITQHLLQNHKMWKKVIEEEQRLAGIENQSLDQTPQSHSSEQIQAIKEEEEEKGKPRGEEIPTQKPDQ

[31] = molecular target: Sodium-dependent serotonin transporter (Homo sapiens) (UniProt P31645); experiment: 5-HT transporter Eurofins-Cerep binding assay; set-up: ligand concentration 2 nM; conditions: Compound concentration 10.0 uM

Chain of Cathepsin G (P08311 whole entry): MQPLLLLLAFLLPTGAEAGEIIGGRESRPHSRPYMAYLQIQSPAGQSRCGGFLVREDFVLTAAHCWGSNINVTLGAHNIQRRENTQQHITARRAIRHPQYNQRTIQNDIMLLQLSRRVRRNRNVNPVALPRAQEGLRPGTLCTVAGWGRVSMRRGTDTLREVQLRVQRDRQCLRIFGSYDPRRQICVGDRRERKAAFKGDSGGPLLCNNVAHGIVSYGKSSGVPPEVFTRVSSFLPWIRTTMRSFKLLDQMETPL

- IC50 (Cathepsin G): > 10 µM (not active)
- residual activity ([3]; Compound concentration 10.0 uM): 92%
- residual activity ([3]; Compound concentration 30.0 uM): 80%
- residual activity [5]: 92%
- residual activity [6]: 105%
- residual activity [7]: 115%
- residual activity [13]: 113%
- residual activity [20]: 105%
SMILES: CC(C)(O)CNC(=O)N1C(=O)N(c2cccc(C(F)(F)F)c2)C2=C(C(=O)CC2)[C@H]1c1ccc(C#N)cc1
- residual activity [1]: 98%
- residual activity [2]: 93%
- residual activity ([4]; Compound concentration 10.0 uM): 129%
- residual activity ([4]; Compound concentration 30.0 uM): 118%
- residual activity [8]: 103%
- residual activity [9]: 102%
- residual activity [10]: 95%
- residual activity [11]: 103%
- residual activity [12]: 122%
- residual activity [14]: 94%
- residual activity ([15]; Compound concentration 10.0 uM): 100%
- residual activity ([15]; Compound concentration 30.0 uM): 93%
- activity at 10 µM [16]: 102% (not active)
- residual activity [17]: 89%
- residual activity [18]: 103%
- residual activity [19]: 77%
- residual activity [21]: 97%

- residual activity [22]: 86%
- residual activity [31]: 105%
SMILES: CC(C)(O)CNC(=O)N1C(=O)N(c2cccc(C(F)(F)F)c2)C2=C(C(=O)CC2)[C@@H]1c1ccc(C#N)cc1
- residual activity [23]: 105%
- residual activity [24]: 101%
- residual activity [25]: 98%
- residual activity [26]: 102%
- activity at 10 µM [27]: 104% (not active)
- activity at 10 µM [28]: 101% (not active)
- residual activity [29]: 96%
- residual activity (Homo sapiens): 115%
- residual activity [30]: 97%
